Measured values as given in paper PMC9511483, “Refinement of Computational Access to Molecular Physicochemical Properties: From Ro5 to bRo5” (Journal of Medicinal Chemistry, 2022).
Converted amounts (≈) assume the structure as drawn.

How the values were obtained:
[1] = BRlogD chromatographic lipophilicity (XBridge Shield RP18); assay type: physicochemical
Protocol: (§1) Mobile phases consisted of an isocratic solution of 20 mM ammonium acetate at pH 7.0 and acetonitrile at various percentages (see specific method). Samples were dissolved in buffer/acetonitrile at concentrations ranging from 50 to 100 μg/mL. Chromatographic measurements were analyzed in duplicate. Then 10 μL of each solution (volume of injection) were injected at an isocratic 1 mL/min flow rate, analyzed at 30 °C (oven temperature). Each chromatographic descriptor required a specific HPLC method (see below).
The three compounds previously dissolved in ACN were injected into the X-Bridge column (mobile phase: 40% buffer, 60% ACN), and the retention times and dead time (t0, baseline disturbance) were recorded. Consequently, capacity factor log k′60 was calculated (log k′60 = [tR – t0]/t0). The corresponding BRlogD value was obtained using equation: BRlogD = 3.31 × log k′60 + 2.79.[12] The used standard is acetone, caffeine, ibuprophen, lidocaine, phenol and a mixture of uracile, acetophenone and toluene.

[2] = log kW^IAM chromatographic lipophilicity (IAM.PC.DD2 column); assay type: physicochemical; settings: extrapolated to 100% buffer, pH 7.0
Protocol: as §1
Dissolved samples were injected into column IAM.PC.DD2, and retention times were recorded at different mobile phase percentages (from 10 to 50% ACN). Capacity factor was calculated for each mobile phase condition using equation: k′ = [tR – t0]/t0) t0 being the retention time of a nonretained molecule (citric acid). The log kW^IAM value for each molecule was calculated by extrapolating the 100% buffer value (0% ACN) from the equation obtained with the five mobile phase conditions, previously mentioned. In addition, five standards (caffeine, carbamazepine, ketoprofen, theobromine, and toluene) were examined on a daily basis.[33]

[3] = log k′80 PLRP-S chromatographic lipophilicity; assay type: physicochemical; settings: 80% ACN
Protocol: as §1
The retention times of the three samples were recorded at 80% ACN and capacity factors were calculated. Moreover, gold standards (acetone, caffeine, phenol, uracil–acetophenone--toluene mix and benzene) were daily checked.[15]

[4] = log Ptol, miniaturized shake-flask toluene/water; assay type: physicochemical
Protocol: log Ptol was determined with an automated, miniaturized shake flask method in a 96-well format according to the protocol described by Shalaeva and co-workers.[24]

[5] = Δlog kW^IAM polarity descriptor; assay type: physicochemical; settings: experimental log kW^IAM minus clog kW^IAM from BRlogD
Source text: Δlog kW^IAM was earlier defined by Grumetto et al.[48] as (Δlog kW^IAM = experimental log kW^IAM – clog kW^IAM (log kW^IAM for neutral and nonpolar compounds with PSA = 0). Moreover, clog kW^IAM was correlated to log P (octanol/water)[48] and more recently to BRlogD[12] with equation (clog kW^IAM = BRlogD* 0.92–1.03). Therefore, the measurement of BRlogD and log kW^IAM for the three samples allowed to calculate polarity descriptor Δlog kW^IAM.

[6] = EPSA supercritical fluid chromatography polarity; assay type: physicochemical; settings: SFC, Chirex 3014
Protocol: EPSA was determined following the SFC protocol by Goetz and co-workers.[17] Briefly, a polar stationary phase (Chirex 3014) and a nonpolar mobile phase (supercritical CO2 with the addition of 20 mM ammonium formate in methanol as a modifier) were used to enable separation of compounds based on their polarity. The modifier was varied in 11 min from 5% to 60% at 5%/min in a linear gradient, holding at 60% for 4.9 min and reverting to the original 5% in 0.1 min. The flow rate was 5 mL/min, with the outlet back pressure set to 100 bar instead of 140 bar of the original method. Samples were dissolved in DMSO, the injection volume was 5 μL. The column temperature was set to 40 °C.

[7] = Δlog Poct-tol IMHB propensity; assay type: physicochemical; settings: difference between log Poct and log Ptol
Source text: Δlog Poct-tol([24]) (the difference between log Poct and log Ptol) is an indicator of the capacity of a compound to expose HDon groups, and thus it quantifies the molecular capacity to form dynamic IMHBs. […] Our data support that Saquinavir is the compound with the highest capacity to form IMHB, its Δlog Poct-tol being 0.79. Pomalidomide and CMP 98 show poorer propensity to mask HDon groups, although not negligible.

[8] = PLRP-S retention at 50-100% ACN (chameleonicity); assay type: physicochemical; settings: mobile phases 50 to 100% ACN
Source text: In a recent paper, we proposed to monitor the propensity of compounds to assume a chameleonic behavior through the analysis of the variation of the capacity factor in a nonpolar polymeric chromatographic system, named PLRP-S.[16] Here we applied the same approach and determined the retention of the three compounds in the PLRP-S system with various mobile phases (from 50 to 100% ACN). According to the reverse-phase (RP) nature of the system, the retention time (and thus log k′ PLRP-S) of lipophilic molecules is expected to decrease when increasing the amount of acetonitrile in the mobile phase. […] This experimental finding can be explained by a propensity of Saquinavir to change its conformation in a nonpolar environment, masking its polarity supporting the chameleonic properties of this compound.

Thermodynamic solubility = assay type: physicochemical; settings: for solubility: 25 °C, thermodynamic from solid, thermodynamic solubility, read-out: Solubility 25ºC log S (converted)
Protocol: Table S1: Thermodynamic solubility and permeability data of the three selected compounds.
Solubility 25 °C Permeability
Molecules log S (mol/l) (cm/s x 10 )

[9] = SI Table S1; cited from earlier work
[10] = parameters: method as in Clark 1999; settings: atom selection N, O, S, P, H; ref Clark 1999; cited from earlier work
Caco-2 = settings: cited from earlier work
[11] = parameters: method as in PMID 29608068; settings: cited from earlier work

SMILES: Cc1ncsc1-c1ccc(CNC(=O)[C@@H]2C[C@H](O)CN2C(=O)[C@@H](NC(=O)COCCOCCOCCOCCOCCOCC(=O)N[C@H](C(=O)N2C[C@@H](O)C[C@H]2C(=O)NCc2ccc(-c3scnc3C)cc2)C(C)(C)C)C(C)(C)C)cc1 [CMP 98]
- chromatographic logD ([1]; XBridge Shield RP18 HPLC column, 60% ACN, ammonium acetate pH 7.0): 1.38
- log kW^IAM [2]: 2.34
- log k´80 PLRP-S [3]: -0.84
- log Ptol (SF) [4]: -0.24
- Δlog kW^IAM [5]: 2.1
- EPSA [6]: 104 A^2
- Δlog P (Δlog Poct-tol) [7]: 1.62
- log k′ PLRP-S behaviour with increasing acetonitrile (chameleonicity index) [8]: some deviation from linearity
- solubility (Thermodynamic solubility): 331 µM (≈ 391 µg/mL)
- water solubility (Thermodynamic solubility; SI Table S1): water-soluble
- PAMPA permeability [9]: not PAMPA permeable

SMILES: CN1C(=O)C(O)N=C(c2ccccc2Cl)c2cc(Cl)ccc21 (stereo not drawn) [Lormetazepam]
- 3D PSA PSA Clark 1999 [10]: 55.9 Å2

SMILES: CC(C)(C)NC(=O)[C@@H]1C[C@@H]2CCCC[C@@H]2CN1C[C@@H](O)[C@H](Cc1ccccc1)NC(=O)[C@H](CC(N)=O)NC(=O)c1ccc2ccccc2n1 [Saquinavir]
- BRlogD ([1]; pH 7): 2.85
- log kW^IAM [2]: 3.44
- log k´80 PLRP-S [3]: -0.1
- log Ptol (SF) [4]: 2.06
- Δlog kW^IAM [5]: 1.85
- EPSA [6]: 94 A^2
- Δlog P (Δlog Poct-tol) [7]: 0.79
- log k′ PLRP-S behaviour with increasing acetonitrile (chameleonicity index) [8]: significantly higher than expected
- Permeability (Caco-2 with efflux inhibiton) (Caco-2; Caco-2 with efflux inhibition, ref 11 (SI)): 5.0 cm/s x 10^-6
- Permeability mechanism (Caco-2; ref 11 (SI)): Mainly active transport
- pKa [11]: 7.1

SMILES: Nc1cccc2c1C(=O)N(C1CCC(=O)NC1=O)C2=O (stereo not drawn) [Pomalidomide]
- BRlogD ([1]; 60% ACN, ammonium acetate pH 7.0): 1.41
- log kW^IAM [2]: 0.91
- log k´80 PLRP-S [3]: -0.65
- log Ptol (SF) [4]: -0.22
- Δlog kW^IAM [5]: 0.64
- EPSA [6]: 82 A^2
- Δlog P (Δlog Poct-tol) [7]: 1.63
- log k′ PLRP-S behaviour with increasing acetonitrile (chameleonicity index) [8]: about in line with expectations
- solubility (Thermodynamic solubility): 28.2 µM (≈ 7.7 µg/mL)
- Permeability (Caco-2) (Caco-2; Caco-2, ref 13 (SI)): 24.9 cm/s x 10^-6

SMILES: CC(=O)Nc1ccc(O)cc1 [Acetaminophen]
- 3D PSA PSA Clark 1999 [10]: 58.5 Å2

SMILES: CC(=O)[C@H]1CC[C@H]2[C@@H]3CCC4=CC(=O)CC[C@]4(C)[C@H]3CC[C@]12C [Progesterone]
- 3D PSA PSA Clark 1999 [10]: 41.2 Å2

SMILES: Cn1c(=O)c2c(ncn2C)n(C)c1=O [Caffeine]
- 3D PSA PSA Clark 1999 [10]: 59.2 Å2

SMILES: Cc1cc(=O)n(-c2ccccc2)n1C [Phenazone]
- 3D PSA PSA Clark 1999 [10]: 28 Å2

SMILES: O=c1ccc2ccccc2o1 [Coumarin]
- 3D PSA PSA Clark 1999 [10]: 33.9 Å2

SMILES: O=C1CN=C(c2ccccn2)c2cc(Br)ccc2N1 [Bromazepam]
- 3D PSA PSA Clark 1999 [10]: 57.4 Å2

SMILES: O=C(O)c1ccccc1O [Salicylic Acid]
- 3D PSA PSA Clark 1999 [10]: 62.5 Å2

SMILES: Nc1nnc(-c2cccc(Cl)c2Cl)c(N)n1 [Lamotrigine]
- 3D PSA PSA Clark 1999 [10]: 96.4 Å2

SMILES: Cn1c(=O)c2[nH]cnc2n(C)c1=O [Theophylline]
- 3D PSA PSA Clark 1999 [10]: 74.7 Å2
